Test results published in patent US20220378043A1, “BIOFILM TREATMENT AGENT AND BIOFILM TREATMENT METHOD” (SEIKO PMC CORPORATION, priority 2019, published 2022).
Converted amounts (≈) assume the structure as drawn. Read-outs that look alike come from different tables or passages of the source. Residues, ends and D or L forms follow the SMILES beside them.

Experiments:
[1] = tested on: Pseudomonas aeruginosa (deposit number: NBRC106052 strain); test: Minimum inhibitory concentration (MIC) test; type: cell-based
Method: A compound (hereinafter, sometimes referred to as a substance to be evaluated) that is a component of a biofilm treatment agent is diluted stepwise with a bouillon medium for testing susceptibility to prepare a total amount of 10 mL of dilution series (with the proviso of being 1.1 times the target concentration). 20 μL of a bacterial suspension which has been prepared such that there is 10^8 cfu/mL of Pseudomonas aeruginosa (deposit number: NBRC106052 strain) which is a representative strain of biofilm-forming bacteria as a test bacterial strain is added thereto and subjected to shaking culture (2000 rpm) with a 96-well microplate mixer at 37° C. for 24 hours. The lowest concentration in the dilution series which is not visually turbid is regarded as the MIC.
Pseudomonad (gram-negative bacterium) known as a model bacterium forming a biofilm was used as a test bacterium to MIC's of compounds (hereinafter, substances to be evaluated) that are components of a biofilm treatment agent.
(1) Test Bacterium Pseudomonas aeruginosa (Deposit Number: NBRC106052 Strain)
Each substance to be evaluated was diluted stepwise with a bouillon medium for testing susceptibility to prepare a total amount of 10 mL of dilution series (with the proviso of being 1.1 times the target concentration). 20 μL of a bacterial suspension which had been prepared such that there was 10^8 cfu/mL of a test bacterial strain was added thereto and subjected to shaking culture (2000 rpm) with a 96-well microplate mixer at 37° C. for 24 hours. The lowest concentration in the dilution series which was not visually turbid was regarded as the MIC.

[2] = tested on: Pseudomonas aeruginosa (deposit number: NBRC106052 strain) biofilm; test: Evaluation of biofilm-removing effect (crystal violet staining of pre-formed biofilm); type: cell-based; settings: Table 4: anthranilic acid analog and/or biosurfactant or synthetic surfactant, each at Table 2 concentration, pH 7.0, 3.5 hours contact
Source text: In the present invention, the biofilm-removing effect is an action of removing biofilms formed by bacteria. Examples of methods for evaluating an effect of removing substances to be evaluated include a method for comparing the amount of biofilm formed after bringing the substance to be evaluated into contact with a biofilm formed through culturing bacteria for a certain period of time with the amount of biofilm (control) formed after the elapse of a certain period of time without the biofilm being brought into contact with the substance to be evaluated. In this case, when the amount of biofilm formed is smaller than that of the control, it can be determined that the substance to be evaluated has a biofilm-removing effect.
(i) A triptic soy broth (TBS, Bacto: manufactured by Difco Laboratories) medium having a final concentration of glucose of 1% is used for Pseudomonas aeruginosa (deposit number: NBRC106052 strain) which is a representative strain of biofilm-forming bacteria to prepare a preculture solution under the condition of 120 rpm.
(ii) The preculture solution of which the turbidity (OD) is adjusted to 0.1 is diluted with a TSB medium so that the final concentration is 0.000005% (v/v), and 2 mL of the diluent is dispensed into a 12-well plate. Here, the following OD (turbidity) is a value which is measured with a spectrophotometer (iMark Microplate Reader: manufactured by Bio-Rad Laboratories, Inc.) at a wavelength of 630 nm in which distilled water is used as a blank.
(iii) Culture is performed under the conditions of 37° C. and 130 rpm for 17 hours to form a biofilm.
(iv) The culture solution in each well is removed and each well is rinsed twice with distilled water.
(v) A substance to be evaluated is added to a medium at an appropriate concentration less than the MIC of the target substance, and the pH of the medium is adjusted to 7.0 with hydrochloric acid or sodium hydroxide. 2 mL of a sterile medium (pH=7.0) is added to each well to be used as a negative control.
(vi) Each well is shaken at the same temperature as that of the preculture for 3.5 hours at 130 rpm, the biofilm is brought into contact with the medium containing the substance to be evaluated, and then, the medium in each well is removed, and each well is rinsed twice with distilled water.
(vii) 2 mL of an aqueous crystal violet solution (0.4 w/v %, 20 w/v % methanol) is added to the biofilm adhering in each well, allowed to stand for 2 minutes, and allowed to stain, and then, the stained biofilm is rinsed three times with distilled water, and the aqueous crystal violet solution which has not been bound to the biofilm is removed.
(viii) 2 mL of ethanol is added to each well and allowed to stand for 1 hour to elute crystal violet from the stained biofilm, and the absorbance is measured. Here, the following absorbance is a value which is measured with a spectrophotometer (iMark Microplate Reader: manufactured by Bio-Rad Laboratories, Inc.) at a wavelength of 595 nm in which distilled water is used as a blank.
(ix) Regarding the absorbance of the negative control and each substance to be evaluated, absorbances measured for 4 wells are taken as an average value, and the removal rate of each biofilm is calculated from the following calculation equation.
Biofilm removal rate (%)={1-(absorbance of substance to be evaluated/absorbance of negative control)}×100
The biofilm-removing effect and the biofilm formation-inhibiting effect of each of the substances to be evaluated shown in Table 1 were confirmed according to the evaluation methods specified in the present invention using each biofilm treatment agent containing each substance to be evaluated as a biofilm treatment agent component. In addition, evaluation results of the biofilm-removing effect and the biofilm formation-inhibiting effect of each aromatic monohydric alcohol alone are shown in […]

[3] = Pseudomonas aeruginosa, NBRC106052, bouillon medium, 37° C., 24 hours, lowest concentration not visually turbid, read-out: MIC
[4] = bouillon medium, 37° C., 24 hours, lowest concentration not visually turbid
[5] = Pseudomonas aeruginosa, NBRC106052, 24 h

Molecule	MIC [1, 3] [µg/mL]	Removal results (removal rate %) [2] [%]	MIC [1, 5] [µg/mL]	other results
CCCCCO [Comparative Example 1, 1-Pentanol]	> 5000			
NC(=O)c1ccccc1N [Comparative Example 5, Anthranylamide]		25		MIC [1, 4]: 5,000 ppm
COC(=O)c1ccccc1N [Comparative Example 6, Methyl anthranilate]		33	1250 (≈ 8.27 mM)	
Nc1ccccc1C(=O)O [Comparative Example 7, Anthranilic acid]		20	10000 (≈ 72.9 mM)	
CC(C)CCCCCCCCC[C@@H]1CC(=O)N[C@@H](CCC(=O)O)C(=O)N[C@@H](CC(C)C)C(=O)N[C@H](CC(C)C)C(=O)N[C@@H](C(C)C)C(=O)N[C@@H](CC(=O)O)C(=O)N[C@H](CC(C)C)C(=O)N[C@@H](CC(C)C)C(=O)O1 [Comparative Example 9, Surfactin] (HELM PEPTIDE1{E.L.[dL].V.D.[dL].L}|CHEM1{[CC(C)CCCCCCCCC[C@H](CC(=O)[*:1])O[*:2]]}$PEPTIDE1,CHEM1,1:R1-1:R1|PEPTIDE1,CHEM1,7:R2-1:R2$$$V2.0)	10000 (≈ 9.65 mM)	24		
OCc1ccccc1 [Example 1, 1-Phenylmethanol]	2500 (≈ 23.1 mM)			
CC(O)c1ccccc1 (stereo not drawn) [Example 2, 1-Phenylethanol]			5000 (≈ 40.9 mM)	
OCCc1ccccc1 [Example 3, 2-Phenylethanol]	5000 (≈ 40.9 mM)			
OCCOc1ccccc1 [Example 4, 2-Phenoxyethanol]			2500 (≈ 18.1 mM)	
OCCCOc1ccccc1 [Example 5, 3-Phenoxy-1-propanol]			2500 (≈ 16.4 mM)	
OCC=Cc1ccccc1 [Example 6, Cinnamyl alcohol]	2500 (≈ 18.6 mM)			
CCCCCCCCCCCCOS(=O)(=O)[O-].[Na+] [SDS, sodium dodecyl sulfate]	2000			
OCC(CO)c1ccccc1 [compound 2, 2-Phenyl-1,3-propanediol]	> 5000			
OCC(O)COc1ccccc1 (stereo not drawn) [compound 3, 3-Phenoxy-1,2-propanediol]			> 5000	
N#CC(Br)(Br)C(N)=O [compound 4, 2,2-dibromo-3-nitrilopropionamide]	19.5 (≈ 0.0806 mM)			
Rhamnolipid [Comparative Example 8]		24		MIC [1, 4]: >10,000 ppm
Sophorolipid [Comparative Example 10]		36		MIC [1, 4]: >10,000 ppm
polyoxyethylene lauryl ether [POELE]				MIC [1, 4]: >2,000 ppm
